IC50 data for three molecules are collected here from US20230265089A1, “QUINOLINE DERIVATIVES, PHARMACEUTICALLY ACCEPTABLE SALTS, AND METHODS OF USE THEREOF” (vTv Therapeutics LLC, priority 2020, published 2023).

Each structure is given as a SMILES string.

A word on the IC50: it is the midpoint of a concentration-inhibition curve. Higher therefore signals lower potency.

T1 sequence (Q08499 1-748 isoform Q08499-11): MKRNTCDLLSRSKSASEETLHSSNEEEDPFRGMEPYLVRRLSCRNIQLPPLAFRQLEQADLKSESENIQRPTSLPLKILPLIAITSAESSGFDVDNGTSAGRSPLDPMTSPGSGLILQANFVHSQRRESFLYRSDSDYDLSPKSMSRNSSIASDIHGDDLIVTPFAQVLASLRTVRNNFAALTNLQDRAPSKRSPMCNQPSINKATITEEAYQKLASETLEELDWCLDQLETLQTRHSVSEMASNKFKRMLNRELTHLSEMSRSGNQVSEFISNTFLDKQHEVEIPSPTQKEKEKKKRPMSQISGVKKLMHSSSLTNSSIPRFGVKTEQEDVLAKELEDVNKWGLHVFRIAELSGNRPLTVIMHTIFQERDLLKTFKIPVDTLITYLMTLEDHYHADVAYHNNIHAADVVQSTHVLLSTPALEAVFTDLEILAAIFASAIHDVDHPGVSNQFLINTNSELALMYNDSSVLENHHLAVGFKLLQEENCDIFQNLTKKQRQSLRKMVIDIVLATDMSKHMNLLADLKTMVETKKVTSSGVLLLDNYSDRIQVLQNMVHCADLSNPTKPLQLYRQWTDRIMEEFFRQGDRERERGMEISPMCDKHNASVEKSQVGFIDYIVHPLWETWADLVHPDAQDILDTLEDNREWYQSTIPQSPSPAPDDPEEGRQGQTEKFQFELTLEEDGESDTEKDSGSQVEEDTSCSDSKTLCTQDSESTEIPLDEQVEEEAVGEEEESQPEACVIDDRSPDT

This test concerns the target T1, PDE4D7 (Homo sapiens, UniProt Q08499).
T1 construct: purchased BPS BioSciences 60708
The experiment in a line: PDE4D7 TR-FRET assay. The test is classed as biochemical. The conditions noted are these: TR-FRET assay kit, FAM-cAMP substrate.
Excerpt: According to BPS Biosciences product information, the PDE4D7 TR-FRET assay is designed for identification of inhibitors of PDE4D7 using TR-FRET (Time Resolved Fluorescence Resonance Energy Transfer) technology. The assay is based on the generation of FAM-labeled nucleotide monophosphates by the phosphodiesterase. These phosphate groups bind to terbium-labeled nanoparticles, resulting in energy transfer from the terbium to the FAM, which emits a fluorescent signal at 520 nm. The change in fluorescent intensity can be easily measured using a fluorescence plate reader.
The general assay protocol for PDE4D7 TR-FRET assay used to obtain the experimental data described below includes two steps: First, the fluorescent-labeled cAMP is incubated with a sample containing PDE4D7 for 1 hour. Second, a binding agent and a terbium donor are added to the reaction mix and incubated for 1 hour. Then, fluorescence intensity can be measured using a fluorescence reader. A detailed protocol is as follows
Step 1: Dilute 20 μM FAM-Cyclic-3′,5′-AMP substrate stock solution 100-fold with PDE buffer to make a 200 nM solution. Make only a sufficient quantity needed for the assay; store remaining stock solution in aliquots at −20° C. Add 25 μl of FAM-Cyclic-3′,5′-AMP (200 nM) to each well designated “Substrate Control”, “Positive Control”, and “Test Inhibitor”. Add 25 μl of PDE assay buffer to each well designated “Tb-only Control”. Add 5 μl of inhibitor solution to each well designated “Test Inhibitor”. Add 5 μl of the same solution without inhibitor (inhibitor buffer) to the “Tb-only Control”, “Substrate Control” and “Positive Control”. Thaw PDE4D7 on ice. Upon first thaw, briefly spin tube containing enzyme to recover the full contents of the tube. […]
Step 2: Make binding dilution buffer by mixing equal volumes of Binding buffer A and Binding buffer B. For example, mix 1 ml Binding buffer A with 1 ml Binding buffer B. Mix binding agent thoroughly and dilute binding agent 1:50 with binding dilution buffer made in Step 1. […] Read the fluorescent intensity in a microtiter-plate reader capable of TR-FRET.
For `COc1cccc2c1ncc1c(=O)n([C@H]3CC[C@H](C(=O)O)CC3)c(=O)n(-c3cccc(Cl)c3)c12` [COMPOUND I * HCI (Batch 1), trans-4-[1-(3-chlorophenyl)-7-methoxy-2,4-dioxo-pyrimido[5,4-c]quinolin-3-yl]cyclohexanecarboxylic acid], half-maximal inhibition (IC50) required 1.5 nM. Take `COc1cccc2c1ncc1c(=O)n([C@H]3CC[C@H](C(=O)O)CC3)c(=O)n(-c3cccc(Cl)c3)c12` [COMPOUND I * HCI (Batch 2), trans-4-[1-(3-chlorophenyl)-7-methoxy-2,4-dioxo-pyrimido[5,4-c]quinolin-3-yl]cyclohexanecarboxylic acid]: the IC50 amounted to 3.3 nM. The figure for `COc1cccc2c1ncc1c(=O)n([C@H]3CC[C@H](C(=O)O)CC3)c(=O)n(-c3cccc(Cl)c3)c12` [COMPOUND I * HCI (Batch 3), trans-4-[1-(3-chlorophenyl)-7-methoxy-2,4-dioxo-pyrimido[5,4-c]quinolin-3-yl]cyclohexanecarboxylic acid] is 1.1 nM.
